Measured values reported in patent US9963444B2, “N-acylethanolamine hydrolyzing acid amidase (NAAA) inhibitors and their use thereof” (Northeastern University, priority 2014, dated 2018).

Each compound was assayed against hNAAA (Homo sapiens (Human), UniProt Q02083) (assay: Fluorescence-based NAAA inhibition assay with fluorogenic substrate PAMCA). Conditions: not given.
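Further: compound preincubated 15 min at room temperature with hNAAA, then PAMCA added at 5 µM, reacted 120 min at 37 °C, AMC release read by fluorescence (ex 360, em 460 nm).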

Chain of hNAAA (Q02083 29-125): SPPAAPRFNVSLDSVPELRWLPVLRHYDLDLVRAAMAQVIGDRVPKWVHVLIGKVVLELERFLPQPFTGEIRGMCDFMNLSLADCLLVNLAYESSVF
Chain of hNAAA (Q02083 126-359): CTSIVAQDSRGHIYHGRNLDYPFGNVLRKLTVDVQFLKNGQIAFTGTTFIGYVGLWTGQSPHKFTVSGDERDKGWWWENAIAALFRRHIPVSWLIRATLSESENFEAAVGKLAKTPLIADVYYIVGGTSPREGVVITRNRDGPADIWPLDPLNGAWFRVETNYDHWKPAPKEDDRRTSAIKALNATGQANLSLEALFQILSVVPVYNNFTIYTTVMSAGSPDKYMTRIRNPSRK

Row | IC50 | Structure (SMILES)
1 | 0.01 to 0.1 µM | COc1ccc(-c2ccc(COC3CN(C#N)C3)cc2)cc1 [Example 63, 3-((4′-Methoxy-[1,1′-biphenyl]-4-yl)methoxy)azetidine-1-carbonitrile]
2 | 0.01 to 0.1 µM | N#CN1CC(OCc2ccc(-c3ccccc3)cc2)C1 [Example 64, 3-([1,1′-Biphenyl]-4-ylmethoxy)azetidine-1-carbonitrile]
3 | 0.01 to 0.1 µM | COc1ccc(-c2ccc(COC3CN(C#N)C3)cc2)c(OC)c1 [Example 65, 3-((2′,4′-Dimethoxy-[1,1′-biphenyl]-4-yl)methoxy)azetidine-1-carbonitrile]
4 | 0.01 to 0.1 µM | N#CN1CC(OCc2cccc(-c3ccccc3)c2)C1 [Example 66, 3-([1,1′-Biphenyl]-3-ylmethoxy)azetidine-1-carbonitrile]
5 | 0.01 to 0.1 µM | COc1ccc(OC)c(-c2ccc(COC3CN(C#N)C3)cc2)c1 [Example 68, 3-((2′,5′-Dimethoxy-[1,1′-biphenyl]-4-yl)methoxy)azetidine-1-carbonitrile]
6 | 0.01 to 0.1 µM | COc1cccc(-c2ccc(COC3CN(C#N)C3)cc2)c1OC [Example 69, 3-((2′,3′-Dimethoxy-[1,1′-biphenyl]-4-yl)methoxy)azetidine-1-carbonitrile]
7 | 0.01 to 0.1 µM | N#CN1CC(OCc2ccc(-c3cccc(C(F)(F)F)c3)cc2)C1 [Example 70, 3-((3′-(Trifluoromethyl)-[1,1′-biphenyl]-4-yl)methoxy)azetidine-1-carbonitrile]
8 | 0.01 to 0.1 µM | N#CN1CC(OCc2ccc(-c3cc(C(F)(F)F)cc(C(F)(F)F)c3)cc2)C1 [Example 71, 3-((3′,5′-Bis(trifluoromethyl)-[1,1′-biphenyl]-4-yl)methoxy)azetidine-1-carbonitrile]
9 | 0.01 to 0.1 µM | N#CN1CC(OCc2ccc(-c3cccnc3)cc2)C1 [Example 72, 3-((4-(Pyridin-3-yl)benzyl)oxy)azetidine-1-carbonitrile]
10 | 0.01 to 0.1 µM | COc1ccc(-c2ccc(COC3CN(C#N)C3)cc2)cn1 [Example 73, 3-((4-(6-Methoxypyridin-3-yl)benzyl)oxy)azetidine-1-carbonitrile]
11 | 0.01 to 0.1 µM | COc1ncccc1-c1ccc(COC2CN(C#N)C2)cc1 [Example 74, 3-((4-(2-Methoxypyridin-3-yl)benzyl)oxy)azetidine-1-carbonitrile]
12 | 0.01 to 0.1 µM | COc1ccccc1-c1ccc(COC2CN(C#N)C2)cc1 [Example 75, 3-((2′-Methoxy-[1,1′-biphenyl]-4-yl)methoxy)azetidine-1-carbonitrile]
13 | 0.01 to 0.1 µM | Cc1ccc(-c2ccc(COC3CN(C#N)C3)cc2)cc1 [Example 76, 3-((4′-Methyl-[1,1′-biphenyl]-4-yl)methoxy)azetidine-1-carbonitrile]
14 | 0.01 to 0.1 µM | N#CN1CC(OCc2ccc(-c3ccc(F)cc3)cc2)C1 [Example 77, 3-((4′-Fluoro-[1,1′-biphenyl]-4-yl)methoxy)azetidine-1-carbonitrile]
15 | 0.01 to 0.1 µM | COc1cccc(-c2ccc(COC3CN(C#N)C3)c(F)c2)c1 [Example 78, 3-((3-Fluoro-3′-methoxy-[1,1′-biphenyl]-4-yl)methoxy)azetidine-1-carbonitrile]
16 | 0.01 to 0.1 µM | COc1cccc(-c2ccc(COC3CN(C#N)C3)c(C(F)(F)F)c2)c1 [Example 79, 3-((3′-Methoxy-3-(trifluoromethyl)-[1,1′-biphenyl]-4-yl)methoxy)azetidine-1-carbonitrile]
17 | 0.01 to 0.1 µM | COc1cccc(-c2ccc(COC3CN(C#N)C3)c(OC)c2)c1 [Example 80, 3-((3,3′-Dimethoxy-[1,1′-biphenyl]-4-yl)methoxy)azetidine-1-carbonitrile]
18 | 0.01 to 0.1 µM | N#CN1CC(OCc2ccc(Oc3ccccc3)cc2)C1 [Example 81, 3-((4-Phenoxybenzyl)oxy)azetidine-1-carbonitrile]

Row | IC50 | Structure (SMILES)
19 | 0.01 to 0.1 µM | COc1cccc(-c2ccc(C3(COC4CN(C#N)C4)CC3)cc2)c1 [Example 82, 3-((1-(3′-Methoxy-[1,1′-biphenyl]-4-yl)cyclopropyl)methoxy)azetidine-1-carbonitrile]
20 | 0.01 to 0.1 µM | COc1cccc(OC)c1-c1ccc(COC2CN(C#N)C2)cc1 [Example 83, 3-((2′,6′-Dimethoxy-[1,1′-biphenyl]-4-yl)methoxy)azetidine-1-carbonitrile]
21 | 0.01 to 0.1 µM | N#CN1CC(OCc2ccc(-c3ccc4c(c3)OCCO4)cc2)C1 [Example 84, 3-((4-(2,3-Dihydrobenzo[b][1,4]dioxin-6-yl)benzyl)oxy)azetidine-1-carbonitrile]
22 | 0.01 to 0.1 µM | N#CN1CC(OCc2ccc(-c3cccc(OCc4ccccc4)c3)cc2)C1 [Example 85, 3-((3′-(Benzyloxy)-[1,1′-biphenyl]-4-yl)methoxy)azetidine-1-carbonitrile]
23 | 0.01 to 0.1 µM | N#CN1CC(COCc2ccc(-c3ccccc3)cc2)C1 [Example 86, 3-(([1,1′-Biphenyl]-4-ylmethoxy)methyl)azetidine-1-carbonitrile]
24 | 0.01 to 0.1 µM | N#CN1CC(OCc2ccc(Oc3ccccc3)cc2-c2ccccc2)C1 [Example 87, 3-((5-Phenoxy-[1,1′-biphenyl]-2-yl)methoxy)azetidine-1-carbonitrile]
25 | 0.01 to 0.1 µM | COc1ccccc1-c1cc(Oc2ccccc2)ccc1COC1CN(C#N)C1 [Example 88, 3-((2′-Methoxy-5-phenoxy-[1,1′-biphenyl]-2-yl)methoxy)azetidine-1-carbonitrile]
26 | 0.01 to 0.1 µM | COc1cccc(-c2cc(Oc3ccccc3)ccc2COC2CN(C#N)C2)c1 [Example 89, 3-((3′-Methoxy-5-phenoxy-[1,1′-biphenyl]-2-yl)methoxy)azetidine-1-carbonitrile]
27 | 0.01 to 0.1 µM | COc1ccc(-c2cc(Oc3ccccc3)ccc2COC2CN(C#N)C2)cc1 [Example 90, 3-((4′-Methoxy-5-phenoxy-[1,1′-biphenyl]-2-yl)methoxy)azetidine-1-carbonitrile]
28 | 0.01 to 0.1 µM | COc1ncccc1-c1cc(Oc2ccccc2)ccc1COC1CN(C#N)C1 [Example 91, 3-((2-(2-Methoxypyridin-3-yl)-4-phenoxybenzyl)oxy)azetidine-1-carbonitrile]
29 | 0.01 to 0.1 µM | N#Cc1ccc(-c2cc(Oc3ccccc3)ccc2COC2CN(C#N)C2)cc1 [Example 92, 3-((4′-Cyano-5-phenoxy-[1,1′-biphenyl]-2-yl)methoxy)azetidine-1-carbonitrile]
30 | 0.01 to 0.1 µM | N#Cc1ccccc1-c1cc(Oc2ccccc2)ccc1COC1CN(C#N)C1 [Example 93, 3-((2′-Cyano-5-phenoxy-[1,1′-biphenyl]-2-yl)methoxy)azetidine-1-carbonitrile]
31 | 0.01 to 0.1 µM | N#CN1CC(OCc2ccc(OC(c3ccc(F)cc3)c3ccc(F)cc3)cc2Br)C1 [Example 94, 3-((4-(Bis(4-fluorophenyl)methoxy)-2-bromobenzyl)oxy)azetidine-1-carbonitrile]
32 | 0.01 to 0.1 µM | COc1cccc(-c2ccc(COC3(C)CN(C#N)C3)cc2)c1 [Example 95, 3-((3′-Methoxy-[1,1′-biphenyl]-4-yl)methoxy)-3-methylazetidine-1-carbonitrile]
33 | 0.01 to 0.1 µM | COc1cccc(-c2ccc(COC3(c4ccccc4)CN(C#N)C3)cc2)c1 [Example 96, 3-((3′-Methoxy-[1,1′-biphenyl]-4-yl)methoxy)-3-phenylazetidine-1-carbonitrile]
34 | 0.01 to 0.1 µM | N#CN1CC(OCc2ccc(-c3ccc4c(c3)OCO4)cc2)(c2ccccc2)C1 [Example 97, 3-((4-(Benzo[d][1,3]dioxol-5-yl)benzyl)oxy)-3-phenylazetidine-1-carbonitrile]
35 | 0.01 to 0.1 µM | N#CN1CC(OCc2ccc(-c3ccc4c(c3)OCCO4)cc2)(c2ccccc2)C1 [Example 98, 3-((4-(2,3-Dihydrobenzo[b][1,4]dioxin-6-yl)benzyl)oxy)-3-phenylazetidine-1-carbonitrile]
36 | 0.01 to 0.1 µM | N#CN1CC(OC(c2ccccc2)c2ccc(Br)cc2)C1 (stereo not shown) [Example 99, 3-((4-Bromophenyl)(phenyl)methoxy)azetidine-1-carbonitrile]

Row | Structure (SMILES) | IC50
37 | CN(Cc1ccc(-c2ccccc2)cc1)[C@H]1C[C@@H](N=C=S)C1 [Example 54, (1S,3S)—N-([1,1′-biphenyl]-4-ylmethyl)-3-isothiocyanato-N-methylcyclobutan-1-amine] | > 1 µM
38 | S=C=NC[C@H]1C[C@@H](OCc2ccc(-c3ccccc3)cc2)C1 [Example 57, 4-(((1S,3S)-3-(isothiocyanatomethyl)cyclobutoxy)methyl)-1,1′-biphenyl] | 0.11 to 1 µM
39 | COc1cccc(-c2ccc(COC3CN(C#N)C3)cc2)c1 [Example 67, 3-((3′-Methoxy-[1,1′-biphenyl]-4-yl)methoxy)azetidine-1-carbonitrile] | 0.01 to 0.1 µM

Same assay, conditions: read-out: NAAA Inhibition IC50 μM; purified hNAAA, PAMCA 5 μM, pH 4.5

Row | Structure (SMILES) | IC50
40 | CN(Cc1ccc(-c2ccc3c(c2)OCO3)cc1)C1CC(N=C=S)C1 [Example 55, (1R,3R)—N-(4-(benzo[d][1,3]dioxol-5-yl)benzyl)-3-isothiocyanato-N-methylcyclobutan-1-amine] | > 1 µM
41 | CCN(Cc1ccc(-c2ccc3c(c2)OCO3)cc1)C1CC(N=C=S)C1 [Example 56, (1R,3R)—N-(4-(benzo[d][1,3]dioxol-5-yl)benzyl)-N-ethyl-3-isothiocyanatocyclobutan-1-amine] | 0.11 to 1 µM
42 | FC(F)(F)c1cccc(-c2ccc(COC3CCCC(N=C=S)C3)cc2)c1 (stereo not shown) [Example 58, 4′-(((3-Isothiocyanatocyclohexyl)oxy)methyl)-3-(trifluoromethyl)-1,1′-biphenyl] | > 1 µM
43 | COc1ccc(-c2ccc(COC3CCC(N=C=S)CC3)cc2)cc1F (stereo not shown) [Example 59, 3-Fluoro-4′-((((1r,4r)-4-isothiocyanatocyclohexyl)oxy)methyl)-4-methoxy-1,1′-biphenyl] | 0.11 to 1 µM
44 | S=C=N[C@@H]1CC[C@@H](OCc2ccc(Br)cc2)C1 [Example 60, 1-Bromo-4-((((1R,3R)-3-isothiocyanatocyclopentyl)oxy)methyl)benzene] | > 1 µM
45 | FC(F)(F)c1cccc(-c2ccc(CO[C@H]3Cc4ccccc4[C@H]3N=C=S)cc2)c1 [Example 61, (1R,2S)-1-isothiocyanato-2-((3′-(trifluoromethyl)-[1,1′-biphenyl]-4-yl)methoxy)-2,3-dihydro-1H-indene] | > 1 µM
46 | COc1ccc(-c2ccc(CO[C@@H]3Cc4ccccc4[C@@H]3N=C=S)cc2)cc1F [Example 62, (1S,2R)-2-((3′-fluoro-4′-methoxy-[1,1′-biphenyl]-4-yl)methoxy)-1-isothiocyanato-2,3-dihydro-1H-indene] | > 1 µM
